{
  "source": "patent US9220706B2",
  "about": "“Inhibition of leukemic stem cells by PP2A activating agents” (Ohio State Innovation Foundation, priority 2012, dated 2015)",
  "key": {"[1]": {"test_system": "UCB CD34^+ cells in NSG mice", "conditions": "mouse, in vivo", "source_text": "Engraftment of Human Normal and CML Cells in Immnunodeficient NSG Mice and Effect of FTY720 on Leukemic and Normal Hematopoietic Stem/Progenitor Cells. CD34+ cells were isolated from BM of CML patients (n=3) or from umbilical cord blood specimens (UCB; n=3). Note that CML samples were from patients in blastic transformation with ≧75% of Ph+ blasts. Sublethally irradiated (260 rads) 6-8 week-old NOD.Cg-Prkds^scid IL2rg^tm1WjI/SzJ (NSG, Jackson Laboratory) mice were intrafemorally injected with 1-3×10^6 CML or 10^5 UCB CD34^+ cells/mouse. The engraftment was assessed 8 weeks post-transplant by anti-human CD45 (BD Biosciences) and anti-mouse CD45.1 flow staining of intrafemoral BM aspirates and PB from tail vein. Wunderlich et al., Leukemia 24, 1785-1788 (2010). […] Disease evolution and effect of FTY720 on HSC-enriched cell fraction (CD45^+/CD34^+/CD38^−), primitive progenitors (CD45+/CD34+), myeloid (CD45^+/CD34^+/CD33^+), B-cell (CD45^+/CD19^+) and T-cell (CD45^+/CD3^+) compartments were determined before and after 4/8 weeks of FTY720 treatment by FACS-mediated analysis of BM aspirates and/or PB cells. BCR-ABL1 transcript levels were monitored by qRT-PCR-mediated (Ipsogen) analysis of BCR-ABL1/human Abl1 ratios in total RNA samples derived from BM-aspirates of CML-engrafted animals at time of engraftment (time 0) and after 8 weeks of FTY720 treatment. […]"}, "[2]": {"target": "T1, SET-PP2A interaction (Homo sapiens, UniProt Q01105)", "T1 construct": "untreated and FTY720-treated (24 h) CD34^+/CD38^− CML cells; endogenous in cells; host or cells: CD34+/CD38- CML patient cells", "T1 sequence (Q01105 1-277 isoform Q01105-2)": "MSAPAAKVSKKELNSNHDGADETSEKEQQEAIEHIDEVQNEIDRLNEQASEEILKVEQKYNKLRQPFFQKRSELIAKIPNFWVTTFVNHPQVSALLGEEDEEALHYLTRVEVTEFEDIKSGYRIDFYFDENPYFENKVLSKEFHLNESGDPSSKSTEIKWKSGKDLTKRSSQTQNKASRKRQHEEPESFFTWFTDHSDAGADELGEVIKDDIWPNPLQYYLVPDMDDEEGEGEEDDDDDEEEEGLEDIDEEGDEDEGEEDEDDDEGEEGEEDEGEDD", "test": "Proximity ligation assay, SET-PP2A association", "type": "cell-based", "conditions": "CD34^+/CD38^− CML cells, 24 h", "source_text": "Immunofluorescence and proximity ligation assay. CD34^+/CD38^− cells from CML patient samples or LSK cells derived from induced leukemic mice were sorted, treated in liquid culture with the indicated drugs and cytospun onto glass slides. Slides were fixed in 3.7% formaldehyde, penneabilized with 0.05% Triton X-100, and stained with an Anti-®-catenin primary antibody (Cell signaling), a secondary goat F(ab′) anti-rabbit conjugated to Alexa Fluor 647, and the nuclear stain DAPI (Invitrogen); slides were mounted with Slowfade antifade reagent (Invitrogen). Microphotographs were obtained with a Zeiss LSM 510 confocal laser-scanning microscope with C-Apochromat 63/1.2 W objective. A minimum of three fields for each slide were acquired. For the Proximity Ligation Assay (PLA) CD34+/CD38− CML cells were treated, fixed, and permeabilized as described above. The slides were then simultaneously stained with a mix of mouse anti-PP2A (Millipore) and rabbit anti-SET (Globozyme) antibodies. The PLA procedure (Duolink; Olink Bioscience) was performed according to manufacturer instructions. An average of 20 z-stack ([…]) were captured with a Zeiss LSM 510 confocal laser-scanning microscope with C-Apochromat 63/1.2 W objective; at least three fields/slide were acquired. Three-dimensional projections were generated and positive signals/cell were calculated by ImageJ software (NIH)."}, "[3]": {"test_system": "human CML CD34^+ BM cells in NSG mice", "type": "in vivo", "source_text": "Engraftment of Human Normal and CML Cells in Immnunodeficient NSG Mice and Effect of FTY720 on Leukemic and Normal Hematopoietic Stem/Progenitor Cells. CD34+ cells were isolated from BM of CML patients (n=3) or from umbilical cord blood specimens (UCB; n=3). Note that CML samples were from patients in blastic transformation with ≧75% of Ph+ blasts. Sublethally irradiated (260 rads) 6-8 week-old NOD.Cg-Prkds^scid IL2rg^tm1WjI/SzJ (NSG, Jackson Laboratory) mice were intrafemorally injected with 1-3×10^6 CML or 10^5 UCB CD34^+ cells/mouse. The engraftment was assessed 8 weeks post-transplant by anti-human CD45 (BD Biosciences) and anti-mouse CD45.1 flow staining of intrafemoral BM aspirates and PB from tail vein. Wunderlich et al., Leukemia 24, 1785-1788 (2010). CML- and UCB-engrafted NSG mice were treated for 8 weeks (8-10 mice/group) with either FTY720 (10 mg/kg/day; i.p.) or PBS. Disease evolution and effect of FTY720 on HSC-enriched cell fraction (CD45^+/CD34^+/CD38^−), primitive progenitors (CD45+/CD34+), myeloid (CD45^+/CD34^+/CD33^+), B-cell (CD45^+/CD19^+) and T-cell (CD45^+/CD3^+) compartments were determined before and after 4/8 weeks of FTY720 treatment by FACS-mediated analysis of BM aspirates and/or PB cells. BCR-ABL1 transcript levels were monitored by qRT-PCR-mediated (Ipsogen) analysis of BCR-ABL1/human Abl1 ratios in total RNA samples derived from BM-aspirates of CML-engrafted animals at time of engraftment (time 0) and after 8 weeks of FTY720 treatment. […] These studies were performed by IRB and IACUC approved protocols.\nFluorescent in situ hybridization (FISH). Human CD45+ cells from intrafemoral BM aspirates of untreated and 8 weeks FTY720-treated NSG mice engrafted with CD34+ CML-BC and UCB cells, were FACS-isolated, dropped onto microscope slides, and fixed in a solution of three parts methanol and one part acetic acid. A triple color, dual fusion BCR/ABL1 FISH probe was applied according to the manufacturer's instructions (Kreatech Diagnostics). Hybridized slides were counterstained with DAPI and visualized under an Olympus BX41 microscope. Images were captured using a Hammamatsu Orca II CCD camera and SmartCapture X software (Digital Scientific)."}, "[4]": {"test_system": "β-catenin-driven (LEF/TCF) transcriptional activity", "test": "LEF/TCF reporter assay", "type": "cell-based, human", "conditions": "CD34^+/CD38^− CML and 32D-BCR/ABL cells", "protocol": "LEF/TCF reporter assay. CD34+/CD38− CML cells were transduced with pBAR or pfuBAR (negative control) ®-catenin lentiviral reporter constructs (54), puromycin-selected and treated with the indicated drugs. Luciferase was measured using the Bright-Glo Luciferase system (Promega)."}, "[5]": {"test_system": "LSK SCLtTA/BCR-ABL1 cells", "test": "CFC/replating assay, leukemic LSK cells", "type": "cell-based, mouse", "protocol": "(§1) Long term culture-initiating cell (LTC-IC) and Colony-forming cell (CFC)/replating assays. 2×10^6 mononuclear CML cells were cultured with a 1:1 mixture of irradiated (80 Gy) IL-3/G-CSF-producing M2-10B4 and IL-3/KL-producing SI/SI murine fibroblasts in MyeloCult H5100 (StemCell Technologies) supplemented with hydrocortisone. Drugs were present during the first week of culture. Medium was replaced after 7 days, followed by weekly half-medium changes. After 6 weeks, adherent and floating cells were harvested and 5×10^4 cells plated into MethoCult H4435. LTC-IC-derived colonies were scored after 14 days. For CFC/replating, individual 14-day colonies from 10^3-10^5 CD34+/CD38− CML or 0.2×10^3-10^3 leukemic LSK cells plated in 0.9% H4435 or M3234 MethoCult, respectively, containing KL, G-CSF, GM-CSF, IL-3, IL-6, and Epo were replated and scored 2 weeks later."}, "[6]": {"test_system": "CD34+/CD38− CML cells", "test": "CFC/replating assay, CML cells", "type": "cell-based, human", "protocol": "as §1"}, "[7]": {"conditions": "BM of NSG mice, 4 and 8 weeks FTY720 10 mg/kg/day i.p."}},
  "data": [
    {"smiles": "CCCCCCCCc1ccc(CCC(N)(CO)CO)cc1", "note": "[FTY720]", "values": [
      {"measurement": "effect on human BM cell fractions", "setting": "[1]", "result": "did not exert noteworthy effects"},
      {"measurement": "numbers of circulating B-(CD19^+) and T-(CD3^+) cells", "setting": "[1]", "result": "reduced numbers"},
      {"measurement": "SET-PP2A interaction", "setting": "[2]", "result": "disrupts the SET-PP2A interaction"},
      {"measurement": "BCR-ABL1 transcripts (BCR-ABL1/hAbl1)", "setting": "[3]; BM aspirates of FTY720-treated CML-engrafted mice", "result": "significant decrease"},
      {"measurement": "reduction in CD45^+/CD34^+ progenitors", "setting": "[3]; [7]", "result": "~85", "unit": "%"},
      {"measurement": "reduction in CD45^+/CD34^+/CD38^− HSCs", "setting": "[3]; [7]", "result": "~97", "unit": "%"},
      {"measurement": "reduction in total hCD45^+ cells", "setting": "[3]; [7]", "result": "~83", "unit": "%"},
      {"measurement": "Ph^+ hCD45^+/CD33^+ myeloid cells", "setting": "[3]; CML-engrafted NSG mice", "result": "also reduced"},
      {"measurement": "adverse effects or changes in animal behavior", "setting": "[3]; mouse, in vivo, ip, 10 mg/kg/day", "result": "have not been noted"},
      {"measurement": "β-catenin transcriptional activity (LEF/TCF luciferase)", "setting": "[4]", "result": "markedly impaired"},
      {"measurement": "reduction in replating efficiency", "setting": "[5]", "result": "70-90%"},
      {"measurement": "reduction in replating efficiency", "setting": "[6]", "result": "70-90%"}
    ]}
  ]
}
